# Results as given in ChEMBL document CHEMBL6134865, “Rational Design of Methylene Blue-Raloxifene Conjugates for Efficient Breast Tumor Elimination Triggered by ERα Degradation” (J Med Chem, 2025).
# Active and inactive are the calls of the source. The calls are words filed in the database; no cut-off is given here.
# How the values were obtained:
# MCF7 [1] = assay: Photothermal effect in human MCF7 cells assessed as temperature of cell culture medium at 1 uM irradiated with 660 nm 0.4 W/cm2 light for 5 min (reference value: 26 degreeC); type: ADME, cell-based; settings: mcf7, 5 min
# [2] = Drug uptake in female BALB/c mouse kidney xenografted with human MCF7 cells at 5 mg/kg, iv measured after 4 hrs by fluorescence imaging analysis; type: ADME, organism-based; settings: in vivo
# [3] = Toxicity in female BALB/c mouse xenografted with human MCF7 cells assessed as change in hemoglobin level at 5 mg/kg, iv measured after 14 days; type: organism-based; settings: in vivo, 336 h, time 14 day
# MCF7 [4] = assay: Photothermal effect in human MCF7 cells assessed as temperature of cell culture medium at 1 uM irradiated with 660 nm 0.4 W/cm2 light for 2 min (reference value: 26 degreeC); type: ADME, cell-based; settings: mcf7, 2 min
# in vivo [5] = settings: Sprague-Dawley, rat, iv, 5 mg/kg
# Description: Volume of distribution at steady state in Sprague-Dawley rat at 5 mg/kg, iv measured after 0.5 to 168 hrs by LC-MS analysis
# [6] = Toxicity in female BALB/c mouse xenografted with human MCF7 cells assessed as effect on heart histology at 5 mg/kg, iv measured after 14 days by H and E staining based analysis; type: organism-based; settings: in vivo, 336 h, time 14 day
# MCF7 [7] = assay: cells; settings: Homo sapiens, MCF7, 48 h
# Description: Antiproliferative activity against human MCF7 cells assessed as inhibition of cell proliferation incubated for 48 hrs by MTT assay
# [8] = Toxicity in female BALB/c mouse xenografted with human MCF7 cells assessed as change in ALT level at 5 mg/kg, iv measured after 14 days with 660 nm 0.4 W/cm2 light irradiation for 5 mins at 4 hrs of incubation time; type: organism-based; settings: in vivo, 336 h, time 14 day
# MCF7 [9] = assay: Photothermal effect in human MCF7 cells assessed as temperature of cell culture medium at 1 uM irradiated with 660 nm 0.4 W/cm2 light for 3 min (reference value: 26 degreeC); type: ADME, cell-based; settings: mcf7, 0.05 h
# [10] = Toxicity in female BALB/c mouse xenografted with human MCF7 cells assessed as change in platelet level at 5 mg/kg, iv measured after 14 days; type: organism-based; settings: in vivo, 336 h, time 14 day
# MCF7 [11] = assay: Induction of ROS generation in human MCF7 cells assessed as cell percentage with elevated ROS at 1 uM incubated for 6 hrs followed by irradiation with 660 nm 0.4 W/cm2 light for 2 min by DCFH-DA probe based flow cytometric analysis (reference value: 0.2 %); type: functional; settings: time 362 min, 6.033 h
# [12] = Toxicity in female BALB/c mouse xenografted with human MCF7 cells assessed as change in hematocrit level at 5 mg/kg, iv measured after 14 days; type: organism-based; settings: in vivo, 336 h, time 14 day
# [13] = Cytotoxicity against human MCF-10A cells assessed as inhibition of cell proliferation incubated for 48 hrs in absence of light irradiation by MTT assay; type: toxicity, cell-based
# [14] = Toxicity in female BALB/c mouse xenografted with human MCF7 cells assessed as change in blood urea nitrogen level at 5 mg/kg, iv measured after 14 days; type: organism-based; settings: in vivo, 336 h, time 14 day
# [15] = Toxicity in female BALB/c mouse xenografted with human MCF7 cells assessed as effect on spleen histology at 5 mg/kg, iv measured after 14 days by H and E staining based analysis; type: organism-based; settings: in vivo, 336 h, time 14 day
# [16] = Induction of ROS generation in water assessed as decrease in ABDA absorption peak at 1 uM irradiated with 660 nm 0.2 to 1.5 W/cm2 light for 5 mins by ABDA probe based UV-vis absorption spectra analysis; type: functional
# MCF7 [17] = assay: Induction of ROS generation in human MCF7 cells assessed as increase in green fluorescence at 1 uM incubated for 6 hrs followed by irradiation with 660 nm 0.4 W/cm2 light for 5 min by fluorescence imaging analysis; type: functional, cell-based; settings: time 365.0 min
# MCF7 [18] = assay: Photothermal effect in human MCF7 cells assessed as temperature of cell culture medium at 1 uM irradiated with 660 nm 0.4 W/cm2 light for 4 min (reference value: 26 degreeC); type: ADME, cell-based; settings: mcf7, 4 min
# MCF7 [19] = assay: Antitumor activity against human MCF7 cells xenografted in female BALB/c mouse model assessed as tumor growth inhibition at 5 mg/kg, iv measured after 14 days with 660 nm 0.4 W/cm2 light irradiation for 5 mins at 4 hrs of incubation time relative to control; type: functional; settings: MCF7, light or radiation study, 336 h, time 14 day, read-out: TGI
# [20] = Toxicity in female BALB/c mouse xenografted with human MCF7 cells assessed as change in blood urea nitrogen level at 5 mg/kg, iv measured after 14 days with 660 nm 0.4 W/cm2 light irradiation for 5 mins at 4 hrs of incubation time; type: organism-based; settings: in vivo, 336 h, time 14 day
# MCF7 [21] = assay: Photothermal effect in human MCF7 cells assessed as temperature of cell culture medium at 1 uM irradiated with 660 nm 0.4 W/cm2 light for 1 min (reference value: 26 degreeC); type: ADME, cell-based; settings: mcf7, 1 min
# in vivo [22] = settings: Sprague-Dawley, rat, po, 15 mg/kg
# Description: Tmax in Sprague-Dawley rat at 15 mg/kg, po administered via gavage and measured after 0.5 to 168 hrs by LC-MS analysis
# MCF7 [23] = assay: Induction of ROS generation in human MCF7 cells assessed as cell percentage with elevated ROS at 1 uM incubated for 6 hrs followed by irradiation with 660 nm 0.4 W/cm2 light for 3 min by DCFH-DA probe based flow cytometric analysis (reference value: 0.2 %); type: functional; settings: time 363 min, 6.05 h
# [24] = Toxicity in female BALB/c mouse xenografted with human MCF7 cells assessed as change in creatinine level at 5 mg/kg, iv measured after 14 days with 660 nm 0.4 W/cm2 light irradiation for 5 mins at 4 hrs of incubation time; type: organism-based; settings: in vivo, 336 h, time 14 day
# [25] = Toxicity in female BALB/c mouse xenografted with human MCF7 cells assessed as change in body weight at 5 mg/kg, iv measured after 14 days; type: organism-based; settings: in vivo, 336 h, time 14 day
# MCF7 [26] = assay: Antiproliferative activity against human MCF7 cells assessed as inhibition of cell proliferation incubated for 48 hrs with 660 nm 0.2 to 1.5 W/cm2 light irradiation for 1 min at 6th hr of incubation time by MTT assay; type: functional, cell-based
# MCF7 [27] = assay: Induction of ROS generation in human MCF7 cells assessed as cell percentage with elevated ROS at 1 uM incubated for 6 hrs followed by irradiation with 660 nm 0.4 W/cm2 light for 4 min by DCFH-DA probe based flow cytometric analysis (reference value: 0.2 %); type: functional; settings: time 364 min, 6.067 h
# MCF7 [28] = assay: Induction of ROS generation in human MCF7 cells assessed as cell percentage with elevated ROS at 1 uM incubated for 6 hrs by DCFH-DA probe based flow cytometric analysis (reference value: 0.2 %); type: functional
# Mus musculus = assay: In vivo induction of ERalpha degradation in female BALB/c mouse xenografted with human MCF7 cells assessed as decrease in ERalpha level in tumor at 5 mg/kg, iv measured after 14 days with 660 nm 0.4 W/cm2 light irradiation for 5 mins at 4 hrs of incubation time by DAPI staining based immunofluorescence analysis; type: functional, organism-based; settings: time 14.0 day
# [29] = Toxicity in female BALB/c mouse xenografted with human MCF7 cells assessed as change in ALT level at 5 mg/kg, iv measured after 14 days; type: organism-based; settings: in vivo, 336 h, time 14 day
# MCF7 [30] = assay: cells; settings: Homo sapiens, MCF7, light or radiation study
# Description: Antiproliferative activity against human MCF7 cells assessed as inhibition of cell proliferation incubated for 48 hrs with 660 nm 0.4 W/cm2 light irradiation for 4 min at 6th hr of incubation time by MTT assay
# in vivo [31] = settings: Sprague-Dawley, rat, po, 15 mg/kg; remark: listed apart in the source
# Description: Cmax in Sprague-Dawley rat at 15 mg/kg, po administered via gavage and measured after 0.5 to 168 hrs by LC-MS analysis
# [32] = Toxicity in female BALB/c mouse xenografted with human MCF7 cells assessed as effect on lung histology at 5 mg/kg, iv measured after 14 days by H and E staining based analysis; type: organism-based; settings: in vivo, 336 h, time 14 day
structure (smiles),measurement,setting,value
CCN(CC)c1ccc2nc3c4ccccc4/c(=N\CCCCCCC(=O)NCCOc4ccc(C(=O)c5c(-c6ccc(O)cc6)sc6cc(O)ccc56)cc4)cc-3sc2c1,T,MCF7 [1],32.5 °C
same,Drug uptake,[2],Active
same,Activity,[3],Non-toxic
same,T,MCF7 [4],28.4 °C
same,Vd,in vivo [5],108 L/kg
same,Activity,[6],Non-toxic
same,IC50,MCF7 [7],25.1 µM
same,Activity,[8],Non-toxic
same,T,MCF7 [9],29 °C
same,Activity,[10],Non-toxic
same,Activity,MCF7 [11],6.5%
same,Activity,[12],Non-toxic
same,IC50 at 48 h,[13],> 100 µM
same,Activity,[14],Non-toxic
same,Activity,[15],Non-toxic
same,Activity,[16],Active
same,Activity,MCF7 [17],Active
same,T,MCF7 [18],30.9 °C
same,inhibition in vivo at 5 mg/kg,MCF7 [19],118%
same,Activity,[20],Non-toxic
same,T,MCF7 [21],27.3 °C
same,Tmax,in vivo [22],6 h
same,Activity,MCF7 [23],15%
same,Activity,[24],Non-toxic
same,Activity,[25],Non-toxic
same,Activity,MCF7 [26],Active
same,Activity,MCF7 [27],47.8%
same,Activity,MCF7 [28],0.7%
same,Activity,Mus musculus,Active; Superior To That Of Faslodex
same,Activity,[29],Non-toxic
same,IC50,MCF7 [30],0.16 µM
same,Cmax,in vivo [31],17.5 ng/mL
same,Activity,[32],Non-toxic
